Assay results taken from ChEMBL document CHEMBL2010710, “Flavimycins A and B, dimeric 1,3-dihydroisobenzofurans with peptide deformylase inhibitory activity from Aspergillus flavipes” (J Nat Prod, 2012).
Converted amounts (≈) assume the structure as drawn.

Key:
[1] = molecular target: T1, Peptide deformylase (Staphylococcus aureus) (UniProt P68826); assay: (§1) Inhibition of Staphylococcus aureus peptide deformylase using N-formylmethionine-alanine-serine as substrate by spectrophotometry
T1 sequence (whole entry): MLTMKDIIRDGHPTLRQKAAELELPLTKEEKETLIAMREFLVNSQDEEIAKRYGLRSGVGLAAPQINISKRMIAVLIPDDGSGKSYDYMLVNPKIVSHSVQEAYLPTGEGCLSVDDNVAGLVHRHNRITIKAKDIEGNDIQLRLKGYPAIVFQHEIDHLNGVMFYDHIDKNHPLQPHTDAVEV

Peptide deformylase = molecular target: T2, Peptide deformylase (Staphylococcus aureus, UniProt P68826); assay: as §1
T2 sequence (P68826 whole entry): T1 sequence (whole entry)

Staphylococcus aureus [2] = assay: Antibacterial activity against Staphylococcus aureus RN4220 after 18 hrs by broth microdilution method; format: functional; conditions: RN4220, 18 h
Staphylococcus aureus [3] = assay: Antibacterial activity against methicillin-resistant Staphylococcus aureus CCARM 3167 after 18 hrs by broth microdilution method; format: functional; conditions: CCARM 3167, 18 h
Staphylococcus aureus [4] = assay: Antibacterial activity against quinolone-resistant Staphylococcus aureus CCARM 3505 after 18 hrs by broth microdilution method; format: functional; conditions: CCARM 3505, 18 h

| SMILES | inhibition [1] | IC50 (Peptide deformylase) | MIC (Staphylococcus aureus [2]) | MIC (Staphylococcus aureus [3]) | MIC (Staphylococcus aureus [4]) |
| --- | --- | --- | --- | --- | --- |
| Cc1c(O)c(O)c(O)c2c1CO[C@H]2[C@H]1OC(O)c2c(C)c(O)c(O)c(O)c21 (mixture of isomers) [FLAVIMYCIN A] | Dose-dependent effect | 35.8 µM | 32 µg/mL | 32 µg/mL | 32 µg/mL |
| COCc1c(O)c(O)c(O)c2c1CO[C@H]2[C@H]1OC(O)c2c(C)c(O)c(O)c(O)c21 (mixture of isomers) [FLAVIMYCIN B] | Dose-dependent effect | 100 µM | 64 µg/mL | 64 µg/mL | 64 µg/mL |
| CCCCC[C@H](CC(=O)NO)C(=O)N[C@H](C(=O)N1CCC[C@H]1CO)C(C)C [ACTINONIN] |  | 0.02 µM | 4 µg/mL (≈ 10.4 µM) | 4 µg/mL (≈ 10.4 µM) | 4 µg/mL (≈ 10.4 µM) |
